Measurements as given in article PMC3724358 (The journal of physical chemistry. B, 2011).
Positions count from the first letter of the chain named.

Tests used:
[1] = target: T1, Ht cyt c552 (Hydrogenobacter thermophilus cytochrome c552) (Hydrogenobacter thermophilus, UniProt P15452, M77A); assay: protein film voltammetry titration, pyrolytic graphite edge electrode; assay type: binding
T1 sequence (P15452 19-98 M77A): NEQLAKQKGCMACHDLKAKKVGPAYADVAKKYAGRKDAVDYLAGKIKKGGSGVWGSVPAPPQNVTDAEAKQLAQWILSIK

[2] = target: T2, Ht cyt c552 (Hydrogenobacter thermophilus cytochrome c552) (Hydrogenobacter thermophilus, UniProt P15452); assay: as above; assay type: binding
T2 sequence (P15452 19-98): T1 sequence (P15452 19-98 M77A) with A59M

c1c[nH]cn1 [Im, imidazole]
Kd [1]: 756 µM | Kd [2]: 2400 µM
